Measurements taken from US12312356B2, “Anthelmintic heterocyclic compounds” (Boehringer Ingelheim Vetmedica GmbH, priority 2020, dated 2025).

What was measured:
[1] = tested on: microfilariae of Dirofilaria immitis; test: Screening method to test activity against microfilaria of Dirofilaria immitis (motility, dose response); assay type: cell-based; details: 72 h, read-out: EC50 value (motility of the microfilaria)
[2] = tested on: L4 stage Dirofilaria immitis worms; test: Screening method to test activity against L4 stage larvae of Dirofilaria immitis (motility, dose response); assay type: cell-based; details: 72 h, read-out: EC50 value (motility of L4 larvae)

| Structure (SMILES) | EC50 [1] [nM] | EC50 [2] [nM] |
| --- | --- | --- |
| Cc1nc2c(C(C)C)c(C(=O)N[C@H]3CCOc4ccccc43)cnn2c1N1CCCCC1 [Compound 324, N-[(4S)-3,4-dihydro-2H-1-benzopyran-4-yl]-8-isopropyl-2-methyl-3-(piperidin-1-yl)imidazo[1,2-b]pyridazine-7-carboxamide] | < 1 | 1 to 10 |
| Cc1nc2c(C(C)(C)C)c(C(=O)NN3CCOc4ccccc43)cnn2c1-c1cc(Cl)cc(Cl)c1 [Compound 614, 8-tert-butyl-3-(3,5-dichlorophenyl)-N-(2,3-dihydro-1,4-benzoxazin-4-yl)-2-methylimidazo[1,2-b]pyridazine-7-carboxamide] | 1 to 10 |  |
| Cc1nc2c(C(C)C)c(C(=O)N[C@H]3CCOc4ccccc43)cnn2c1-c1cc(F)cc(F)c1 [Compound 175, 3-(3,5-difluorophenyl)-N-[(4S)-3,4-dihydro-2H-1-benzopyran-4-yl]-8-isopropyl-2-methylimidazo[1,2-b]pyridazine-7-carboxamide] | 1 to 10 | 1 to 10 |
| CC(C)c1c(C(=O)N[C@H]2CCOc3ccc(F)cc32)cnn2c(Cl)c(-c3cc(Cl)cc(Cl)c3)nc12 [Compound 304-0, 3-chloro-2-(3,5-dichlorophenyl)-N-[(4S)-6-fluoro-3,4-dihydro-2H-1-benzopyran-4-yl]-8-isopropylimidazo[1,2-b]pyridazine-7-carboxamide] |  | 1000 to 10000 |
| Cc1nc2c(C(C)C)c(C(=O)N[C@H]3CCOc4ccccc43)cnn2c1C#N [Compound 366, 3-cyano-N-[(4S)-3,4-dihydro-2H-1-benzopyran-4-yl]-8-isopropyl-2-methylimidazo[1,2-b]pyridazine-7-carboxamide] |  | 1000 to 10000 |
| Cc1nc2c(C(C)(C)F)c(C(=O)N[C@H]3CCOc4ccccc43)cnn2c1-c1cc(F)cc(F)c1 [Compound 277, 3-(3,5-difluorophenyl)-N-[(4S)-3,4-dihydro-2H-1-benzopyran-4-yl]-8-(2-fluoropropan-2-yl)-2-methylimidazo[1,2-b]pyridazine-7-carboxamide] | 1 to 10 | 1 to 10 |
| Cc1nc2c(C(C)C)c(NC(=O)[C@@H]3CCOc4ccccc43)cnn2c1-c1cc(F)cc(F)c1 [Compound 320-0, (4R)—N-[3-(3,5-difluorophenyl)-8-isopropyl-2-methylimidazo[1,2-b]pyridazin-7-yl]-3,4-dihydro-2H-1-benzopyran-4-carboxamide] |  | 1000 to 10000 |
| Cc1nc2c(C(C)C)c(C(=O)N[C@H]3CCOc4ccccc43)cnn2c1[C@H]1CC[C@H](C(F)(F)F)CC1 [Compound 326, N-[(4S)-3,4-dihydro-2H-1-benzopyran-4-yl]-8-isopropyl-2-methyl-3-[(1r,4r)-4-(trifluoromethyl)cyclohexyl]imidazo[1,2-b]pyridazine-7-carboxamide] |  | 10 to 100 |
| C=C(C)c1c(C(=O)N[C@H]2CCOc3ccccc32)cnn2c(-c3cc(F)cc(F)c3)c(C)nc12 [Compound 279, 3-(3,5-difluorophenyl)-N-[(4S)-3,4-dihydro-2H-1-benzopyran-4-yl]-2-methyl-8-(prop-1-en-2-yl)imidazo[1,2-b]pyridazine-7-carboxamide] | 10 to 100 |  |
| CC(=O)c1nc2c(C(C)C)c(C(=O)N[C@H]3CCOc4ccccc43)cnn2c1-c1cc(Cl)cc(Cl)c1 [Compound 558, 2-acetyl-3-(3,5-dichlorophenyl)-N-[(4S)-3,4-dihydro-2H-1-benzopyran-4-yl]-8-isopropylimidazo[1,2-b]pyridazine] | 10 to 100 |  |
| Cc1nc2c(C(C)C)c(C(=O)N[C@H]3CCOc4ccccc43)cnn2c1C(C)(C)C [Compound 323, 3-tert-butyl-N-[(4S)-3,4-dihydro-2H-1-benzopyran-4-yl]-8-isopropyl-2-methylimidazo[1,2-b]pyridazine-7-carboxamide] | 10 to 100 | 100 to 1000 |
| Cc1nc2c(C(C)C)c(C(=O)N[C@H]3CCOc4ccccc43)cnn2c1C1=CCC(C(F)(F)F)CC1 (stereo partly drawn) [Compound 327, N-[(4S)-3,4-dihydro-2H-1-benzopyran-4-yl]-8-isopropyl-2-methyl-3-[4-(trifluoromethyl)cyclohex-1-en-1-yl]imidazo[1,2-b]pyridazine-7-carboxamide] |  | 1 to 10 |
| CC(C)c1c(C(=O)N[C@H]2CCOc3ccccc32)cnn2c(-c3cc(Cl)cc(Cl)c3)cnc12 [Compound 352, 3-(3,5-dichlorophenyl)-N-[(4S)-3,4-dihydro-2H-1-benzopyran-4-yl]-8-isopropylimidazo[1,2-b]pyridazine-7-carboxamide] | 10 to 100 |  |
| Cc1nc2c(C(C)C)c(NC(=O)[C@H]3CCOc4ccccc43)cnn2c1-c1cc(F)cc(F)c1 [Compound 320, (4S)—N-[3-(3,5-difluorophenyl)-8-isopropyl-2-methylimidazo[1,2-b]pyridazin-7-yl]-3,4-dihydro-2H-1-benzopyran-4-carboxamide] |  | 10 to 100 |
| O=C(N[C@H]1CCOc2ccccc21)c1cnn2c(-c3cc(Cl)cc(Cl)c3)c(C(F)(F)F)nc2c1N1CCOCC1 [Compound 450, 3-(3,5-dichlorophenyl)-N-[(4S)-3,4-dihydro-2H-1-benzopyran-4-yl]-8-(morpholin-4-yl)-2-(trifluoromethyl)imidazo[1,2-b]pyridazine-7-carboxamide] | 100 to 1000 |  |
| Cc1nc2c(C(C)(C)C)c(C(=O)N[C@H]3CCOc4ccccc43)cnn2c1-c1cc(Cl)cc(Cl)c1 [Compound 306, 8-tert-butyl-3-(3,5-dichlorophenyl)-N-[(4S)-3,4-dihydro-2H-1-benzopyran-4-yl]-2-methylimidazo[1,2-b]pyridazine-7-carboxamide] | 1 to 10 | < 1 |
| Cc1nc2c(C(C)C)c(C(=O)N[C@H]3CCOc4ccccc43)cnn2c1[C@H]1CC[C@@H](C(F)(F)F)CC1 [Compound 326-0, N—((S)-chroman-4-yl)-8-isopropyl-2-methyl-3-((1s,4R)-4-(trifluoromethyl)cyclohexyl)imidazo[1,2-b]pyridazine-7-carboxamide] | 10 to 100 | 1 to 10 |
| O=C(N[C@H]1CCOc2ccccc21)c1cnn2c(-c3cc(Cl)cc(Cl)c3)cnc2c1N1CCOCC1 [Compound 511, 3-(3,5-dichlorophenyl)-N-[(4S)-3,4-dihydro-2H-1-benzopyran-4-yl]-8-(morpholin-4-yl)imidazo[1,2-b]pyridazine-7-carboxamide] | 10 to 100 |  |
| Cc1nc2c(C(C)C)c(C(=O)N[C@H]3CCOc4ccccc43)cnn2c1-c1cc(Cl)cc(Cl)c1 [Compound 271, 3-(3,5-dichlorophenyl)-N-[(4S)-3,4-dihydro-2H-1-benzopyran-4-yl]-8-isopropyl-2-methylimidazo[1,2-b]pyridazine-7-carboxamide] | 1 to 10 | < 1 |
| Cc1nc2c(C(C)C)c(C(=O)N[C@H]3CCOc4ccccc43)cnn2c1CC(C)C [Compound 323-0, N-[(4S)-3,4-dihydro-2H-1-benzopyran-4-yl]-2-methyl-3-(2-methylpropyl)-8-(propan-2-yl)imidazo[1,2-b]pyridazine-7-carboxamide] | 10 to 100 | 10 to 100 |
